Key:
[1] = molecular target: T1, recombinant RNR (RRM1 + RRM2) (Homo sapiens, UniProt P31350); experiment: recombinant RNR activity assay, CDP to dCDP conversion; format: biochemical
T1 construct: with Ribonucleoside-diphosphate reductase large subunit
T1 sequence (P31350 1-389): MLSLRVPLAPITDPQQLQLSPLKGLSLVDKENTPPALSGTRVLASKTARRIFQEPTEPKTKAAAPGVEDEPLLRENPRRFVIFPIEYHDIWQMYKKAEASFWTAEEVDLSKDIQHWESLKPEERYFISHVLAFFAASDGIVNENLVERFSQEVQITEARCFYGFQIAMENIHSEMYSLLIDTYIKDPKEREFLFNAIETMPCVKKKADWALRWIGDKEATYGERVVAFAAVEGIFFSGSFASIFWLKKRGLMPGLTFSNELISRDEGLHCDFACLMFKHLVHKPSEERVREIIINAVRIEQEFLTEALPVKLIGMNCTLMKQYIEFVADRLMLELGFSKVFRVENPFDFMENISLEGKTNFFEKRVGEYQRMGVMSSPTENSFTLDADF
T1 sequence (P23921 1-792 partner): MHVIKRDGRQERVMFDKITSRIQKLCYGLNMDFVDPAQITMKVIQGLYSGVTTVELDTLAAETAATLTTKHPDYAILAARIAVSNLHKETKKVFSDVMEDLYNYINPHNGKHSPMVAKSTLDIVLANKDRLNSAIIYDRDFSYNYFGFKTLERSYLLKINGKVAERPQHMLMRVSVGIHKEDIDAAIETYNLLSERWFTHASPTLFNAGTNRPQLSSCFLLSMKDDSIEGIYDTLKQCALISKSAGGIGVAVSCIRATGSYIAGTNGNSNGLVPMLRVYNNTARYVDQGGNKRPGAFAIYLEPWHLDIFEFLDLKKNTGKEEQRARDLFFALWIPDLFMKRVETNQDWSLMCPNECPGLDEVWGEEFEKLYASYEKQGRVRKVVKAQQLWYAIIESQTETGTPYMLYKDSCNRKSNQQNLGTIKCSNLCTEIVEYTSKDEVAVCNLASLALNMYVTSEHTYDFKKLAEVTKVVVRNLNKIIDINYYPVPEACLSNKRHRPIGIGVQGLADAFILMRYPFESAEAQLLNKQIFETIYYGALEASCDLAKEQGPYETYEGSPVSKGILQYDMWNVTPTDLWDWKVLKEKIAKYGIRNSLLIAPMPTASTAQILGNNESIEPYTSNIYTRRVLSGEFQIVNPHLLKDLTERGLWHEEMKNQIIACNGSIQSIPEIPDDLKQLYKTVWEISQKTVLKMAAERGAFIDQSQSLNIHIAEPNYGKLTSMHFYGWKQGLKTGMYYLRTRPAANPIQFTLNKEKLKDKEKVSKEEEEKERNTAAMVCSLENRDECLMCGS

RRM2 = molecular target: T2, RRM2 (Homo sapiens, UniProt P31350); experiment: microscale thermophoresis; format: binding
T2 construct: recombinant purified RRM2, lysine-labelled for MST
T2 sequence (P31350 1-389): T1 sequence (P31350 1-389)

Row | IC50 [1] [µM] | Kd (RRM2) [µM] | SMILES
1 | 29.8 | – | NC(=O)NO [HU, hydroxyurea, reference compound]
2 | 0.25 | 22.5 ± 14 | Oc1ccc(OCc2ccccc2)cc1 [MB, monobenzone]

From PMC9564123, “Identification of Monobenzone as a Novel Potential Anti-Acute Myeloid Leukaemia Agent That Inhibits RNR and Suppresses Tumour Growth in Mouse Xenograft Model” (Cancers, 2022)
